Columns and labels:
Assay type in all cases: biochemical
Human PDE4A3 = biological target: T1, Human PDE4A3 (Homo sapiens, UniProt P27815); assay: PDE4A3 Scintillation Proximity Assay (SPA), inhibition of enzyme activity; settings: geometric mean of 2-7 determinations unless otherwise indicated (b: ≥8 determinations; c: single determination), 1 μM cAMP, 30 min at 25° C., read-out: Human PDE4A FL
T1 construct: His6 (N); FLAG (C); made in house; host or cells: insect cells (baculovirus, pFastBac)
Excerpt: (§1) Human PDE4A3 coding sequence (amino acids 2 to 825 from the sequence with accession number NP_001104779) was cloned into the baculovirus expression vector pFastBac (Invitrogen) engineered to include an N-terminal His6 affinity tag and a c-terminal FLAG affinity tag to aid in purification. The recombinant Bacmid was isolated and used to transfect insect cells to generate a viral stock. To generate cell paste for purification, insect cells were infected with the virus stock and cells were harvested 72 hours after infection. Insect cell paste was lysed and after centrifugation, the supernatant was batch bound to Ni-NTA agarose (GE Healthcare) and eluted with 250 mM imidazole. This eluate was diluted with FLAG buffer (50 mM Tris HCL pH 7.5, 100 mM NaCl, 5% Glycerol, 1 mM TCEP with protease inhibitors) and batch bound to ant-FLAG M2 agarose (Sigma) overnight at 4° C. The agarose was packed into a column, washed with buffer and eluted with buffer containing elute using 250 ug/ml Flag-peptide. Fractions were analyzed using SDS-PAGE Coomassie blue staining and pooled based on purity. Pooled fractions were chromatographed on a S200 120 ml column (GE Healthcare) in 50 mM Tris HCL pH 7.5, 150 mM NaCl, 10% Glycerol, 2 mM TCEP with protease inhibitors. PDE4A3 fractions were analyzed by SDS-PAGE Coomassie blue staining, pooled based on purity, dialyzed against 50 mM Tris HCL pH 7.5, 100 mM NaCl, 20% Glycerol, 2 mM TCEP, frozen and stored at −80° C.
(§2) The PDE4A3, PDE4B1, PDE4C1 and PDE4D3 assays use the Scintillation Proximity Assay (SPA) technology to measure the inhibition of human recombinant […], PDE4C1, and PDE4D3 enzyme activity by compounds in vitro. The PDE4A1, PDE4B3, PDE4C1, and PDE4D3 assays are run in parallel using identical parameters, except for the concentration of enzyme (80 pM PDE4A3, 40 pM PDE4B3, 40 pM PDE4C1 and 10 pM PDE4D). The assays are performed in a 384-well format with 50 uL assay buffer (50 mM TRIS pH7.5; 1.3 mM MgCl2; 0.01% Brij) containing enough PDE4A3, PDE4B1, PDE4C1, and PDE4D to convert ˜20% of substrate (1 μM cAMP consisting of 20 nM 3H-cAMP+[…] cold cAMP) and a range of inhibitors. Reactions are incubated for 30 min at 25° C. The addition of 20 uL of 8 mg/ml yitrium silicate SPA beads (Perkin Elmer) stops the reaction. The plates are sealed (TopSeal, Perkin Elmer) and the beads are allowed to settle for 8 hrs, after which they are read on the Trilux Microbeta overnight.

Human PDE4B1 = biological target: T2, Human PDE4B1 (Homo sapiens, UniProt Q07343, S133E/S654A/S659A/S661A); assay: PDE4B1 Scintillation Proximity Assay (SPA), inhibition of enzyme activity; settings: geometric mean of 2-7 determinations unless otherwise indicated (b: ≥8 determinations; c: single determination); 1 μM cAMP, 30 min at 25° C.; read-out: Human PDE4B FL; IC50
T2 construct: His6 (N); thrombin cleavage site (N); made in house; host or cells: insect cells (baculovirus, pFastBac)
Protocol: The recombinant Bacmid was isolated and used to transfect insect cells to generate a viral stock. To generate cell paste for purification, insect cells were infected with the virus stock and cells were harvested 72 hours after infection as described in Seeger, T. F. et al., Brain Research 985 (2003) 113-126. Insect cell paste was lysed and after centrifugation, the supernatant was chromatographed on Ni-NTA agarose (Qiagen) as described in Seeger, T. F. et al., Brain Research 985 (2003) 113-126. Ni-NTA agarose eluting fractions containing PDE4 were pooled, diluted with Q buffer A (20 mM Tris HCl pH 8, 5% glycerol, 1 mM TCEP) to reduce NaCl to ˜100 mM and loaded on a Source 15Q (GE Healthcare) column. After washing with Q buffer A/10% buffer B to baseline, PDE4D was eluted with a gradient from 10% to 60% of Buffer B (20 mM Tris HCl pH 8, 1 M NaCl, 5% glycerol, 1 mM TCEP). PDE4D fractions were analyzed by SDS-PAGE Coomassie blue staining, pooled based on purity, frozen and stored at −80° C.
as §2

Human PDE4C1 = biological target: T3, Human PDE4C1 (Homo sapiens, UniProt Q08493); assay: PDE4C1 Scintillation Proximity Assay (SPA), inhibition of enzyme activity; settings: geometric mean of 2-7 determinations unless otherwise indicated (b: ≥8 determinations; c: single determination), 1 μM cAMP, 30 min at 25° C., read-out: Human PDE4C FL
T3 construct: His6 (N); FLAG (C); made in house; host or cells: insect cells (baculovirus, pFastBac)
Protocol: as §1, with “The” for “Human PDE4A3 coding sequence (amino acids 2 to 825 from the sequence with accession number NP_001104779) was cloned into the baculovirus expression vector pFastBac (Invitrogen) engineered to include an N-terminal His6 affinity tag and a c-terminal FLAG affinity tag to aid in purification. The”, “PDE4C1” for “PDE4A3”
as §2

human PDE4D3 = biological target: T4, human PDE4D3 (Homo sapiens, UniProt Q08499); assay: PDE4D3 Scintillation Proximity Assay (SPA), inhibition of enzyme activity; settings: geometric mean of 2-7 determinations unless otherwise indicated (b: ≥8 determinations; c: single determination); 1 μM cAMP, 30 min at 25° C.; read-out: Human PDE4D FL; IC50
T4 construct: His6 (C); made in house; host or cells: insect cells (baculovirus, pFastBac)
Protocol: The recombinant Bacmid was isolated and used to transfect insect cells to generate a viral stock. To generate cell paste for purification, insect cells were infected and cells were harvested 72 hours after infection. Insect cell paste was lysed and after centrifugation, the supernatant was chromatographed on Ni-NTA agarose (Qiagen) as described in Seeger, T. F. et al., Brain Research 985 (2003) 113-126. Ni-NTA agarose eluting fractions containing PDE4 were pooled, diluted with Q Buffer A (50 mM Tris HCl pH 8, 4% glycerol, 100 mM NaCl, 1 mM TCEP, Protease inhibitors EDTA-free (Roche)) to reduce NaCl to ˜200 mM, and loaded on a Q Sepharose (GE Healthcare) column. After washing with Q buffer A to baseline, PDE4D was eluted with a gradient from 10% to 60% of Buffer B (50 mM Tris HCl pH 8, 1 M NaCl, 4% glycerol, 1 mM TCEP). PDE4D fractions were analyzed by SDS-PAGE Coomassie blue staining, pooled based on purity, frozen and stored at −80° C.
as §2

T4 sequence (Q08499 186-808): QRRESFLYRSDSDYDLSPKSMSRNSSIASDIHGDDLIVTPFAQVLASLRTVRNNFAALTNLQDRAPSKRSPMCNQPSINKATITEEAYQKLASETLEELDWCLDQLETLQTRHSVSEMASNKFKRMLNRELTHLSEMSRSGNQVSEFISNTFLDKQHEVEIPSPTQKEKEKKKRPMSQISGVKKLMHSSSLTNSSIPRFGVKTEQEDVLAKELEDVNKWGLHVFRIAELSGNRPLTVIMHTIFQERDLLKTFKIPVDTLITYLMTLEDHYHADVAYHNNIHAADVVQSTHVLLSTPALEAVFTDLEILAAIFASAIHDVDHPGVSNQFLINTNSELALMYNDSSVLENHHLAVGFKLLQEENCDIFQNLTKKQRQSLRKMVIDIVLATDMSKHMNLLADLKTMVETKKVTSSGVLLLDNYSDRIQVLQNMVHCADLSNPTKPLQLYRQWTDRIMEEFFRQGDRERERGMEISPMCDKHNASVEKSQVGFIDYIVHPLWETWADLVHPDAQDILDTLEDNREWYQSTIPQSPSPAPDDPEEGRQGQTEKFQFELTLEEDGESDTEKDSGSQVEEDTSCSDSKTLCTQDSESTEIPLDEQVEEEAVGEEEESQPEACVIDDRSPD
T1 sequence (P27815 2-825 isoform P27815-6): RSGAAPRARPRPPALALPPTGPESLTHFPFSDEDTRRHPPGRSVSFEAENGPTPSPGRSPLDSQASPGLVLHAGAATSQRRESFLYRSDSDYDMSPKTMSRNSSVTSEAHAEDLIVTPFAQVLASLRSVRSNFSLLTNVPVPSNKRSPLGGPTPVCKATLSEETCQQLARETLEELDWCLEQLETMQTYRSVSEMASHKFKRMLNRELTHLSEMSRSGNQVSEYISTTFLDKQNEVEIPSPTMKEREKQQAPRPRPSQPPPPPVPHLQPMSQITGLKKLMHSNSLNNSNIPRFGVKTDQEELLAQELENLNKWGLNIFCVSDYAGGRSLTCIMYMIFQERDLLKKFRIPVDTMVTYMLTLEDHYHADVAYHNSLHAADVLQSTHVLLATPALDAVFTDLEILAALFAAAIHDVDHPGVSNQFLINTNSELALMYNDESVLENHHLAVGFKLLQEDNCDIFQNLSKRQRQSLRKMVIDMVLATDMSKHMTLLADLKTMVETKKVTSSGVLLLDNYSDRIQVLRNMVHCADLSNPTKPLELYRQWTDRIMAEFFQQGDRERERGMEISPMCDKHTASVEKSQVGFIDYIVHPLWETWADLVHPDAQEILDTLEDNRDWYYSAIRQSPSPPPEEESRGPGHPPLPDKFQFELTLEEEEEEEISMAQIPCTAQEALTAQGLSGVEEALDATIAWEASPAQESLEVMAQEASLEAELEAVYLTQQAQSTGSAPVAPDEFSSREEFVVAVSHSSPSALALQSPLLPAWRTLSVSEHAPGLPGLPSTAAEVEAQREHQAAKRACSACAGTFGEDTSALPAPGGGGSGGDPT
T2 sequence (Q07343 122-736 S133E/S654A/S659A/S661A): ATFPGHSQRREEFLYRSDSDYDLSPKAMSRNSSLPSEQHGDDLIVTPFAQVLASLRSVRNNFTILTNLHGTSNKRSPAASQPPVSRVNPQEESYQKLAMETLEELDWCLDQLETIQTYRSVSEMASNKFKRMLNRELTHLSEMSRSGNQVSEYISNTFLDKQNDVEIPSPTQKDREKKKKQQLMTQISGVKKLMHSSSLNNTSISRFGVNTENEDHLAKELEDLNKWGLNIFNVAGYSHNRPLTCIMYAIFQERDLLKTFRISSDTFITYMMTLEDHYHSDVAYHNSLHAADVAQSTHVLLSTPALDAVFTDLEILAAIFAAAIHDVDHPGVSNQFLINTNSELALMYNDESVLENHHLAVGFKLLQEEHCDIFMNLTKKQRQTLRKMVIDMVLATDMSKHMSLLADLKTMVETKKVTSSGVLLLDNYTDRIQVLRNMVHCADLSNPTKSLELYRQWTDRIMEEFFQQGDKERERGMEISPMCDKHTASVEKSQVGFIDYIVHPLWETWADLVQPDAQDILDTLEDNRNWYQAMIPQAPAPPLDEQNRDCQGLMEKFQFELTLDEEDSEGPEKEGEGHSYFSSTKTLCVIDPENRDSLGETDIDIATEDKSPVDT
T3 sequence (Q08493 2-712): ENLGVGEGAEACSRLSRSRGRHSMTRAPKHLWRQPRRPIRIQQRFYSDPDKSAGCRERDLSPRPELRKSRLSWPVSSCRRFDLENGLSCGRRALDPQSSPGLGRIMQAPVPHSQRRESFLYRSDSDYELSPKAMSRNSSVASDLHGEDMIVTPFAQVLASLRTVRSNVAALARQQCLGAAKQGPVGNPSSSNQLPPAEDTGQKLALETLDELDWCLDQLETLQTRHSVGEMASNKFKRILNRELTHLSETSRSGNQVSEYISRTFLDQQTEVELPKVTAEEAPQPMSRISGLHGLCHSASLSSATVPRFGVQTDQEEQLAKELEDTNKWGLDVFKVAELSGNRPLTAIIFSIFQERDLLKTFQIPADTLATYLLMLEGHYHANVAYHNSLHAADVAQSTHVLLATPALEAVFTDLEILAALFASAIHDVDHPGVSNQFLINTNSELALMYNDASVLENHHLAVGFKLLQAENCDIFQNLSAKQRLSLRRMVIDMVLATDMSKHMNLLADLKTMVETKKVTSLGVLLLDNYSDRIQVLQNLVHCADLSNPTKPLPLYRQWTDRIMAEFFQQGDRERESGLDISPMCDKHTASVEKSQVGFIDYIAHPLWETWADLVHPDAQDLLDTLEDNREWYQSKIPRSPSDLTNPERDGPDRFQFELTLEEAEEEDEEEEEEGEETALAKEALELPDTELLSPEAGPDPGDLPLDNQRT

Compound	IC50 (Human PDE4A3) [nM]	IC50 (Human PDE4B1) [nM]	IC50 (Human PDE4C1) [nM]	IC50 (human PDE4D3) [µM]
CC1(NC(=O)c2nn3cccnc3c2-c2ccc(Cl)cc2)CC1 [Example 11, 3-(4-chlorophenyl)-N-(1-methylcyclopropyl)pyrazolo[1,5-a]pyrimidine-2-carboxamide]	80.8	62.4	276	> 10.7
O=C(c1nn2cccnc2c1-c1ccc(Cl)c(F)c1)N1CCC1 [Example 12, azetidin-1-yl[3-(4-chloro-3-fluorophenyl)pyrazolo[1,5-a]pyrimidin-2-yl]methanone]	22	6.06	48	0.993
O=C(NC1CC1)c1nn2cccnc2c1-c1cc(Cl)ccc1F [Example 13, 3-(5-chloro-2-fluorophenyl)-N-cyclopropylpyrazolo[1,5-a]pyrimidine-2-carboxamide]	27.2	57.9	57.9	2.46
O=C(NC1CC1)c1nn2cccnc2c1-c1ccc(Cl)cc1F [Example 14, 3-(4-chloro-2-fluorophenyl)-N-cyclopropylpyrazolo[1,5-a]pyrimidine-2-carboxamide]	51.8	179	83.3	> 16.7
N#Cc1ccc(-c2c(C(=O)N3CCC3)nn3cccnc23)cc1F [Example 15, 4-[2-(azetidin-1-ylcarbonyl)pyrazolo[1,5-a]pyrimidin-3-yl]-2-fluorobenzonitrile]	109	51.7	52.7	6.63
CCNC(=O)c1nn2cccnc2c1-c1cc(F)c(C#N)cc1C [Example 16, 3-(4-cyano-5-fluoro-2-methylphenyl)-N-ethylpyrazolo[1,5-a]pyrimidine-2-carboxamide]	15.9	54.3	79.8	2.51
CCNC(=O)c1nn2cccnc2c1-c1cc(F)c(Cl)cc1C [Example 17, 3-(4-chloro-5-fluoro-2-methylphenyl)-N-ethylpyrazolo[1,5-a]pyrimidine-2-carboxamide]	8.46	21	79.8	0.967
CCNC(=O)c1nn2cccnc2c1-c1ccc(Cl)cc1C [Example 18, 3-(4-chloro-2-methylphenyl)-N-ethylpyrazolo[1,5-a]pyrimidine-2-carboxamide]	39.9	150	97.3	6.88
CCNC(=O)c1nn2cccnc2c1-c1cc(F)c(Cl)cc1F [Example 19, 3-(4-chloro-2,5-difluorophenyl)-N-ethylpyrazolo[1,5-a]pyrimidine-2-carboxamide]	11.3	41.4	36.4	2.11
O=C(c1nn2cccnc2c1-c1ccc(Cl)cc1F)N1CCC1 [Example 20, azetidin-1-yl[3-(4-chloro-2-fluorophenyl)pyrazolo[1,5-a]pyrimidin-2-yl]methanone]	64.5	67.4	111	10.9
Cc1cc(Cl)ccc1-c1c(C(=O)N2CCC2)nn2cccnc12 [Example 21, azetidin-1-yl[3-(4-chloro-2-methylphenyl)pyrazolo[1,5-a]pyrimidin-2-yl]methanone]	16.6	44.6	56.5	4.83
Cc1cc(C#N)c(F)cc1-c1c(C(=O)NC2CCC2)nn2cccnc12 [Example 22, 3-(4-cyano-5-fluoro-2-methylphenyl)-N-cyclobutylpyrazolo[1,5-a]pyrimidine-2-carboxamide]	167	273	124	8.81
Cc1cc(C#N)c(F)cc1-c1c(C(=O)NC2CC2)nn2cccnc12 [Example 23, 3-(4-cyano-5-fluoro-2-methylphenyl)-N-cyclopropylpyrazolo[1,5-a]pyrimidine-2-carboxamide]	8.42	25.9	39.4	0.442
Cc1cc(Cl)c(F)cc1-c1c(C(=O)NC2CCC2)nn2cccnc12 [Example 24, 3-(4-chloro-5-fluoro-2-methylphenyl)-N-cyclobutylpyrazolo[1,5-a]pyrimidine-2-carboxamide]	8.53	35.4	44	0.606
Cc1cc(Cl)c(F)cc1-c1c(C(=O)NC2CC2)nn2cccnc12 [Example 25, 3-(4-chloro-5-fluoro-2-methylphenyl)-N-cyclopropylpyrazolo[1,5-a]pyrimidine-2-carboxamide]	5.35	9.61	17.4	0.283
CC(C)NC(=O)c1nn2cccnc2c1-c1ccc(Cl)cc1 [Example 26, 3-(4-chlorophenyl)-N-(propan-2-yl)pyrazolo[1,5-a]pyrimidine-2-carboxamide]	411	488	626	4.91
O=C(NC12CC(C1)C2)c1nn2cccnc2c1-c1ccc(Cl)cc1 [Example 27, N-(bicyclo[1.1.1]pent-1-yl)-3-(4-chlorophenyl)pyrazolo[1,5-a]pyrimidine-2-carboxamide]	55.8	124	217	6.2
